Columns and labels:
OR11H7P = molecular target: T1, OR11H7P (Homo sapiens, UniProt Q8NGC8); experiment: Olfactory receptor cAMP signaling in transfected HEK293T cells exposed to menthol; type: cell-based; settings: 11H7P, menthol 1 nM to 1 mM, cAMP production
T1 construct: expressed in transfected cells; host or cells: HEK293T
T1 sequence (Q8NGC8 1-314): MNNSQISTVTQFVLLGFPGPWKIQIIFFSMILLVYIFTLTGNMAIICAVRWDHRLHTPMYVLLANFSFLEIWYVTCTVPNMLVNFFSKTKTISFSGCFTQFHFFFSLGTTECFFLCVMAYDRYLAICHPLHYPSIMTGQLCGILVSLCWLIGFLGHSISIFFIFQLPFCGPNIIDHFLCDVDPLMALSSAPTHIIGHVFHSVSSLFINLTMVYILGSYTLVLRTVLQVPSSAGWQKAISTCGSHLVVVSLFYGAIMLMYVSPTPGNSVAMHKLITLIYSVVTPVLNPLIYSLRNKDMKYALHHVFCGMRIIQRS
Method: (§1) When creating an age-related flavor profile for menthol, identification of the olfactory receptors that respond to menthol may be accomplished by transfecting human olfactory receptor cDNA sequences in HEK293T co-expressing accessory factors for odorant receptor expression (see, e.g., Saito, H., et al., Cell 119:679-691 (2004)). Transfected cells may then be exposed to serial dilutions of menthol from 1 nM to 1 mM in growth medium, and receptor signaling may be measured by cAMP production in the cell using a commercial assay.
(§2) Next, positive olfactory receptors may be identified by increased signaling when exposed to at least one menthol concentration compared to control cells that have not been transfected. In each case, an EC50 is defined for the receptor versus menthol. Olfactory receptors OR1G1, 8K3, 2W1, 2J2, 11H7P and 51E1 have been identified by this method as menthol-sensitive olfactory receptors.

OR8K3 = molecular target: T2, OR8K3 (Homo sapiens, UniProt Q8NH51); experiment: as above; type: cell-based; settings: 8K3, menthol 1 nM to 1 mM, cAMP production
T2 construct: expressed in transfected cells; host or cells: HEK293T
T2 sequence (Q8NH51 1-312): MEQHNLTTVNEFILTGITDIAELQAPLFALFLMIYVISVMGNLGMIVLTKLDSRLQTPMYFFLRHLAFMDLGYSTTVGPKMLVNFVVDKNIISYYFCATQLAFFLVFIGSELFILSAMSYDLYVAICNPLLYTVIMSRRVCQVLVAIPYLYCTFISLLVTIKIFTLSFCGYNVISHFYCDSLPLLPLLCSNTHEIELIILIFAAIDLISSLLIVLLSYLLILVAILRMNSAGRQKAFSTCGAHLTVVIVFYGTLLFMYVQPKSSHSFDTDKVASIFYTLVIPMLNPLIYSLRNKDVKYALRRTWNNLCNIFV
Method: as §1, §2

OR51E1 = molecular target: T3, OR51E1 (Homo sapiens, UniProt Q8TCB6); experiment: as above; type: cell-based; settings: 51E1, menthol 1 nM to 1 mM, cAMP production
T3 construct: expressed in transfected cells; host or cells: HEK293T
T3 sequence (Q8TCB6 1-318): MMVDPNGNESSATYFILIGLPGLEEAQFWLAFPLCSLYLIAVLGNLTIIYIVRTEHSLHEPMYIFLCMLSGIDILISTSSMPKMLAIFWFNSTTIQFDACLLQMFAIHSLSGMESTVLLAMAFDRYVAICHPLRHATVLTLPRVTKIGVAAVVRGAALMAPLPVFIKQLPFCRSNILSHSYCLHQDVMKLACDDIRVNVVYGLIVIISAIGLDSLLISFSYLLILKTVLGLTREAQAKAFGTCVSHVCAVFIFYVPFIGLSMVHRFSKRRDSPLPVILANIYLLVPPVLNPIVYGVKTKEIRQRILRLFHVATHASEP
Method: as §1, §2

OR2W1 = molecular target: T4, OR2W1 (Homo sapiens, UniProt Q9Y3N9); experiment: as above; type: cell-based; settings: 2W1, menthol 1 nM to 1 mM, cAMP production
T4 construct: expressed in transfected cells; host or cells: HEK293T
T4 sequence (Q9Y3N9 1-320): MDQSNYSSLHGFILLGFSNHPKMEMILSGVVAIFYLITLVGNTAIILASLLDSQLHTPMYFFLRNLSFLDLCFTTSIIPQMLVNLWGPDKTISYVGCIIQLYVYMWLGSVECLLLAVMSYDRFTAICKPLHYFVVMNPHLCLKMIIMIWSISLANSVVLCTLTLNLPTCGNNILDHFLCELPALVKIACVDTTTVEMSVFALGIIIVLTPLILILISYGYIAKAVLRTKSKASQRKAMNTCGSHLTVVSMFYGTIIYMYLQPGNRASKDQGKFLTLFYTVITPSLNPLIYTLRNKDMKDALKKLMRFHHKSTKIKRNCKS
Method: as §1, §2

OR2J2 = molecular target: T5, OR2J2 (Homo sapiens, UniProt O76002); experiment: as above; type: cell-based; settings: 2J2, menthol 1 nM to 1 mM, cAMP production
T5 construct: expressed in transfected cells; host or cells: HEK293T
T5 sequence (O76002 1-312): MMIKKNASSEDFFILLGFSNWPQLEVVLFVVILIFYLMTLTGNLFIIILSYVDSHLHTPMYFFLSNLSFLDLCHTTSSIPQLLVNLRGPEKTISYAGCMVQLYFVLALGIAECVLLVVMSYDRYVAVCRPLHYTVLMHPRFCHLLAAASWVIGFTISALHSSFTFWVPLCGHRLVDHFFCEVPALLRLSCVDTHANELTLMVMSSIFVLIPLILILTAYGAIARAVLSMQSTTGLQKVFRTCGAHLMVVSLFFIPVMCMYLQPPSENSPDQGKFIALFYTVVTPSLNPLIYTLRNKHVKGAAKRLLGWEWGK
Method: as §1, §2

OR1G1 = molecular target: T6, OR1G1 (Homo sapiens, UniProt P47890); experiment: as above; type: cell-based; settings: menthol 1 nM to 1 mM, cAMP production
T6 construct: expressed in transfected cells; host or cells: HEK293T
T6 sequence (P47890 1-313): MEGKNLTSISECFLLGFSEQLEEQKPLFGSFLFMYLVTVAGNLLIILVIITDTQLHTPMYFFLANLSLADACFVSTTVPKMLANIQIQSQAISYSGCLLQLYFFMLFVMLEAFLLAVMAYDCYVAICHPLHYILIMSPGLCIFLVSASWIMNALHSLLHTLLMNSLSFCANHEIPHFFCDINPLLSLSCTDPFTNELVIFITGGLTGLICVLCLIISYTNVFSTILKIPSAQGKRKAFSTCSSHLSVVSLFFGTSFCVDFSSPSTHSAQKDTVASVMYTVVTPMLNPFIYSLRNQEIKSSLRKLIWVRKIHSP
Method: as §1, §2

[1] = adults relative to children; cited from earlier work

Compound: CC1CCC(C(C)C)C(O)C1 (stereo not shown) [menthol]
- receptor identified as menthol-sensitive (increased signaling vs non-transfected control cells) (OR11H7P): menthol-sensitive
- receptor identified as menthol-sensitive (increased signaling vs non-transfected control cells) (OR8K3): menthol-sensitive
- receptor identified as menthol-sensitive (increased signaling vs non-transfected control cells) (OR51E1): menthol-sensitive
- receptor identified as menthol-sensitive (increased signaling vs non-transfected control cells) (OR2W1): menthol-sensitive
- receptor identified as menthol-sensitive (increased signaling vs non-transfected control cells) (OR2J2): menthol-sensitive
- receptor identified as menthol-sensitive (increased signaling vs non-transfected control cells) (OR1G1): menthol-sensitive
- menthol concentration adults require to perceive the same level of intensity as children [1]: approximately two
